In article PMC11009648, “Development of an orally bioavailable mSWI/SNF ATPase degrader and acquired mechanisms of resistance in prostate cancer” (Proceedings of the National Academy of Sciences of the …, 2024):

Assays:
[1] = test system: 22Rv1-wild type (WT) cells; assay: CellTiter-Glo cell viability assay in 22Rv1 wild type cells; format: cell-based, human; settings: 22Rv1 WT
Procedure: (§1) Cells were seeded onto 96-well plates in appropriate culture media and allowed to adhere overnight prior to treatment. The next day, a nine-point serial dilution of the compounds was prepared and added to the plates. After treatment, the cells were then incubated for an additional 5 d. On the last day of treatment, the CellTiter-Glo cell viability assay (Promega) was then executed in accordance with the manufacturer’s guidelines. The signal (luminescence) from each well was determined using an Infinite M1000 Pro plate reader (Tecan). Relative viability was determined by dividing the signal from each well by the average of the control condition in each experiment. Finally, the data were analyzed and plotted using GraphPad Prism.

22Rv1 AUR-3 cells = assay: CellTiter-Glo cell viability assay in AU-15330-resistant 22Rv1 AUR-3 cells (ABCB1 overexpression); format: cell-based, human; settings: for IC50: 22Rv1 AUR-3
From the text: (§2) The rising importance of the mSWI/SNF complex as a therapeutic target and the success ([32], [33]) of developing next-generation PROTAC degraders targeting the mSWI/SNF complex prompted us to proactively study potential resistance mechanisms that cancer cells may develop in response to this class of compounds. To achieve this, we cultured 22Rv1 cells in either DMSO or a lethal dose of AU-15330 for 1 mo, refreshing the drug twice a week, until resistant cells emerged. Upon obtaining a population of resistant cells, we unbiasedly characterized the genomic and transcriptomic alterations using whole-exome sequencing and bulk RNA sequencing (RNA-seq), respectively (Fig. 3A).
as §1

[2] = test system: VCaP castration-resistant tumor model; assay: CRPC-VCaP xenograft efficacy study; format: in vivo; settings: castrated CB17 SCID mice; enzalutamide 10 mg/kg oral gavage five times weekly; AU-24118 15 mg/kg oral gavage three times weekly
Procedure: Six-week-old CB17 (male) SCID mice were obtained from the breeding colony at the U-M. For all studies, tumors were measured two or three times per week using digital calipers, and tumor volumes were calculated using the formula (π/6) (L × W2), where L is length and W is width of the tumor. At study endpoint, mice were killed, and tumors were extracted and weighed. […] Once tumors grew to a palpable size (~400 mm^3), the mice were physically castrated. Once those tumors regained their precastration size, mice were then randomized and treated with either 15 mg/kg AU-24118 or vehicle by oral gavage 3 d per week with or without enzalutamide (10 mg/kg) by oral gavage 5 d per week for 4 wk.
IHC was performed on 4 µm formalin-fixed, paraffin-embedded tissue sections using BRG1 (SMARCA4), AR, FOXA1, ERG and C-Myc. The IHC process was performed on the Ventana ULTRA automated slide staining system using the Omnimap and Ultraview Universal DAB detection kit. The antibody details are provided in SI Appendix, Table S1. The following commercial kits from Roche-Ventana Medical System were used: Discovery CC1 (Cat No. 950-500), Discovery CC2 (Cat No. 950-123), OptiView Universal DAB Detection Kit (Cat No. 760-700), and OmniMap Universal DAB Detection Kit (Cat No. 760-149).
The TUNEL and In Situ Cell Death Detection Kits (TMR Red #12156792910; Roche Applied Science) were used to examine apoptosis, following the manufacturer’s instructions. Briefly, fixed sections were permeabilized with Triton X-100 and then washed in phosphate-buffered saline. Labeling was carried out at 37 °C for 60 min by addition of a reaction buffer that contained enzymes. A Zeiss Axiolmager M1 microscope was used to obtain images.

22Rv1 AUR-2 cells = assay: CellTiter-Glo cell viability assay in AU-15330-resistant 22Rv1 AUR-2 cells (SMARCA4 mutation); format: cell-based, human; settings: dose-response (Fig. S4C)
From the text: as §2
as §1, with “On the last day of treatment, the CellTiter-Glo cell viability assay (Promega) was then executed in accordance with the manufacturer’s guidelines.” left out

[3] = test system: SMARCA4, SMARCA2 and PBRM1 in 22Rv1 AUR-2 cells; assay: Immunoblot of target degradation in 22Rv1 AUR-2 cells; format: cell-based, human; settings: 4 h, AU-15330 1 µM, AU-24118 0.1 µM
Procedure: (§3) Lysates were prepared using radioimmunoprecipitation assay buffer (Thermo Fisher) with cOmpleteTM protease inhibitor cocktail tablets (Sigma-Aldrich) added. Total protein for each sample was determined using the DC Protein Assay (Bio-Rad) according to the manufacturer’s instructions. A standardized quantity of protein was resolved using NuPAGE Tris-Acetate Protein Gel (3 to 8%) (Thermo Fisher) or NuPAGE Bis-Tris Protein Gel (4 to 12%) (Thermo Fisher) and probed with primary antibodies as indicated. Following incubation with secondary antibodies conjugated with horseradish peroxidase, membranes were imaged on an Odyssey Fc Imager (LiCOR Biosciences).

[4] = test system: mutant forms of SMARCA4 in HEK293 cells; assay: Immunoblot of overexpressed flag-tagged mutant SMARCA4 in HEK293 cells; format: cell-based, human; settings: 24 h treatment
From the text: GFP-SMARCA4 (Addgene, 65391) was used for the SMARCA4 mutation clone. The pLVX-TetOne-Puro-hAXL (Addgene, 124797) backbone was used as a starting point prior to undergoing a series of modifications. The endogenous target gene was removed, and a multiple cloning site (MCS) was inserted downstream of the endogenous promoter. Custom gblocks containing Flag-tagged WT SMARCA4 were synthesized (Integrated DNA Technologies, IDT) and inserted into the MCS. Subsequently, custom gblocks containing SMARCA4-N1540S, SMARCA4-I1551del, or SMARCA4-F1485S were inserted to replace the respective portion of WT SMARCA4. Finally, the TRE3G promoter was replaced with hPGK.
HEK293 cells were seeded overnight and transfected with Lipofectamine 3,000 (Thermo Fisher) according to the manufacturer’s protocol. Media were changed 8 h post transfection and incubated for 48 h prior to conducting further analyses.

[5] = test system: VCaP castration-resistant tumor model; parameters: method as in PMID 34937944; settings: VCaP CRPC model, AU-15330 60 mg/kg; not an arm of this study; cited from earlier work
[6] = test system: SMARCA4, PBRM1 and SMARCA2 in 22Rv1-AUR-3 xenografts; assay: 22Rv1-AUR-3 xenograft pharmacodynamics study; settings: 5 d; AU-15330 60 mg/kg retro-orbital; zosuquidar 10, 20 or 40 mg/kg i.p.
Procedure: as §3
For the 22Rv1-AUR-3 model, bilateral subcutaneous dorsal flank tumors were established by injecting 1 × 10^6 cells suspended in a 1:1 mixture of serum-free medium and Matrigel (BD Biosciences). Once tumors reached an average volume of 100 mm^3, mice were randomized and treated with either 60 mg/kg AU-15330 by retro-orbital vein injection 3 times every other day and with or without 10 mg/kg, 20 mg/kg, or 40 mg/kg of zosuquidar by intraperitoneal injection daily for 5 d per week. […] Animals harboring tumors approaching that size were immediately killed. All in vivo studies were approved by the U-M IACUC.

[7] = Fig. 4G/H, 5 d, without zosuquidar
[8] = Homo sapiens, 22Rv1, 120 h, Fig. 4G/H, 5 d, without zosuquidar
[9] = Homo sapiens, 22Rv1, Fig. S6A, siABCB1
[10] = Homo sapiens, 22Rv1, Fig. S6A, siNT (negative control)

Cc1cc([C@H](C(=O)N2C[C@H](O)C[C@H]2C(=O)N[C@@H](CC(=O)N2CCC(N3CCC(C#Cc4ccc(C(=O)NC5C(C)(C)C(Oc6ccc(C#N)c(Cl)c6)C5(C)C)cc4)CC3)CC2)c2ccc(-c3scnc3C)cc2)C(C)C)on1 (stereo partly drawn) [ARD-61, reference compound]
IC50 [1, 7]: 800 nM
sensitivity of AUR-3 cells versus WT (22Rv1 AUR-3 cells; 22Rv1 AUR-3 cells (Fig. S5 E and F)): dramatically less sensitive
IC50 (22Rv1 AUR-3 cells; [7]): > 30000 nM

CNC(=O)c1ccc(N2C(=S)N(c3ccc(C#N)c(C(F)(F)F)c3)C(=O)C2(C)C)cc1F [Enzalutamide, enzalutamide, reference compound]
tumor response [2]: moderate tumor growth inhibition

Cc1ncsc1-c1ccc([C@H](C)NC(=O)[C@@H]2C[C@@H](O)CN2C(=O)[C@@H](NC(=O)CN2CCN(c3cc(-c4ccccc4O)nnc3N)CC2)C(C)(C)C)cc1 [AU-15330]
IC50 [1, 8]: 2.3 nM
IC50 ([1]; Homo sapiens, 22Rv1, Fig. S5F): 40.7 nM
IC50 [1, 9]: 48.9 nM
IC50 [1, 10]: 45.5 nM
IC50 (22Rv1 AUR-3 cells; [8]): 28500 nM
IC50 (22Rv1 AUR-3 cells; Homo sapiens, 22Rv1, Fig. S5F): 20500 nM
IC50 (22Rv1 AUR-3 cells; [9]): 990 nM
IC50 (22Rv1 AUR-3 cells; [10]): > 30000 nM
ability to cause a decrease in cell viability (22Rv1 AUR-2 cells): unable
degradation of SMARCA2 and PBRM1, immunoblot [3]: able to degrade SMARCA2 and PBRM1
degradation of SMARCA4, immunoblot [3]: unable to degrade SMARCA4
degradation of overexpressed mutant SMARCA4, immunoblot [4]: resistant to degradation
tumor response as a single agent [5]: more modest effects as a single agent
degradation of target proteins in tumors, immunoblot [6]: unable to degrade any of its target proteins alone
